The values that follow come from patent US7335500B2, “Production of fucosylated carbohydrates by enzymatic fucosylation synthesis of sugar nucleotides; and in situ regeneration of GDP-fucose” (The Scripps Research Institute, priority 1991, dated 2008).

For assay [1], the target named is T1, human plasma type α1,3FucT (Homo sapiens, UniProt Q11128).
T1 sequence (Q11128 1-374): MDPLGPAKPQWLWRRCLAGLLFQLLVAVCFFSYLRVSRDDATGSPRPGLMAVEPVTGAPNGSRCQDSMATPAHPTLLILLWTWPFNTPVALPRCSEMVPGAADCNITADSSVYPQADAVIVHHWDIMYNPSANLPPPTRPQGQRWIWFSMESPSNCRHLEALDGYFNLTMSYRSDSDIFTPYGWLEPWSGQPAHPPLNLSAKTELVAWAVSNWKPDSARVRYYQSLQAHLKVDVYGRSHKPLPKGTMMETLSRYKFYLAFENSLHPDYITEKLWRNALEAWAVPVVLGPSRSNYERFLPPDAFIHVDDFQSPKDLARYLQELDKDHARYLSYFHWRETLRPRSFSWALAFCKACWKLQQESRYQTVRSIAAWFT
Kind of assay: Substrate specificity and inhibition study of α1,3FucT (GDP-14C-Fuc transfer assay). Format: biochemical. To be noted: for IC50 / Vrel (relative maximal velocities) / Km: 0.1 mM GDP-Fuc; for IC50: 10 mM Mn2+ and 10 mM LacNAc at pH 6.2 and 37° C.; for inhibition in combination with GDP: GDP present at its IC50 of 0.05 mM, FIG. 3: 34 mM Compound 50, 0.2 mM 14C-GDP-fucose, 20 mM MnCl2, pH 6.2; for mode of inhibition: versus LacNAc; for Vrel (relative maximal velocities): 10 mM MnCl2 and 10 mM Galβ1,4GlcNAc, Galβ1,4GlcNAc = 100; for Km: acceptor substrate, 10 mM MnCl2; for relative maximum velocity (Vrel) based on LacNAc: relative rate at Vmax. The method, then: (§1) The assay procedure was essentially the same as described previously [Fukowska-Latallo et al, Gene & Development, 4:1288 (1990)] with some modifications. A stock mixture containing 0.25 mM GDP-^14C-Fuc (5000 cpm/mL), 6.25 mM ATP, 25 mM MnCl2 and 62.5 mM sodium cacodylate buffer, pH 6.2 was mixed freshly and kept on ice. […] The incubation was carried out at 37° C. for 30 to 240 minutes depending upon the acceptor under study. Separate assays in the absence of acceptor were used to correct for background hydrolysis of GDP-Fuc. Upon completion of incubation, 400 μL of a 25 percent (v/v) suspension of QAE-Sephadex was added. […] From the supernatant fluid, 200 μL were extracted and mixed with 10 mL of scintillation cocktail. The radioactivity was counted on a scintillation counter. […] This assay can be run in the absence of ATP.

The next assay concerns the target T2, GalT (Bos taurus, UniProt P08037).
T2 construct: purchased Sigma
T2 sequence (P08037 79-402 limits assumed): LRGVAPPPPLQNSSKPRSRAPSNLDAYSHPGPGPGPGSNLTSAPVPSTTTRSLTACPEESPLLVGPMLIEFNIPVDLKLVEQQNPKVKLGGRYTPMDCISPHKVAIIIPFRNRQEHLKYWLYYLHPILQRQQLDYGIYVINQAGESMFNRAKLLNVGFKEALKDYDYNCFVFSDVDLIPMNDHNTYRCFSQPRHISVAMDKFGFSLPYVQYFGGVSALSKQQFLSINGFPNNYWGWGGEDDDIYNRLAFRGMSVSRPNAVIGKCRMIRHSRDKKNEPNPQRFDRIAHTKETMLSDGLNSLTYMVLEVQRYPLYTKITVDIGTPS
To be noted: cited from earlier work.

Another assay addresses T3, α1,3/4Fucosyltransferase (Homo sapiens, UniProt P21217).
T3 sequence (P21217 1-361): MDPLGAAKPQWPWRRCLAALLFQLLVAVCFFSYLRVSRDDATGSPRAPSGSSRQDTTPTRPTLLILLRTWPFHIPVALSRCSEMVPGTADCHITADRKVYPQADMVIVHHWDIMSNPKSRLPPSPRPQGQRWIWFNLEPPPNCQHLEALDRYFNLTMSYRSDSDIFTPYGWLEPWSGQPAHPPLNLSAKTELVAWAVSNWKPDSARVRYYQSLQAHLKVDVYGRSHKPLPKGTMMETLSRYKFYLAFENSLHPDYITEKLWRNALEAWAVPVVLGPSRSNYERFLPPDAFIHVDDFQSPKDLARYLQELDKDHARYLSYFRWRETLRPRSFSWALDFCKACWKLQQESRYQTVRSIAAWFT
Briefly: Substrate specificity and inhibition study of α1,3/4FucT (GDP-14C-Fuc transfer assay). Particulars: for Vrel (relative velocities): 0.20 mM GDP-Fuc, 20 mM MnCl2, 10 mM acceptor, Galβ1,4GlcNAc = 100. Format: biochemical. Here is the method:
as §1

A word on the IC50: it is the point on the concentration scale where inhibition reaches its midpoint. A high value points to lower potency. Usually Km stands for the substrate concentration at which the rate is half of its maximum.

Read-outs that look alike come from different tables or passages of the source.

On to `OCC1N[C@@H](CO)C(O)[C@@H]1O` (stereo partly drawn), for which, in assay [1], the IC50 came to 52 mM.

As to `CC1N[C@@H](CO)C(O)[C@@H]1O` (stereo partly drawn) [Compound 50, (2R)-Methyl-(5S)-hydroxymethyl-(3R, 4R)-dihydroxyprollidine], in assay [1], the half-maximal inhibitory concentration (IC50) was 34 mM; the “inhibition in combination with GDP” value is listed as “profound, synergistic inhibition”; the mode of inhibition result is listed as “competitive inhibitor”.

On to `CC1NC(CO)C(O)C1O` (stereo not drawn) [Compound 53], for which, in assay [1], the IC50 was determined as 80 mM; the “inhibition in combination with GDP” value is given as “profound, synergistic inhibition”; the mode of inhibition entry is reported as “competitive inhibitor”.

Turning to `OC[C@H]1NC[C@H](O)[C@@H](O)[C@@H]1O` [Deoxynojirimycin], at GalT (Wong et al., J. Am. Chem. Soc., 113:8137-8145 (1991)), the “substrate for α1,4GalT (in words)” value was “a substrate”.

`Nc1nc2c(ncn2[C@@H]2O[C@H](COP(=O)(O)OP(=O)(O)O)[C@@H](O)[C@H]2O)c(=O)[nH]1` [GDP, guanosine 5′-diphosphate]: the IC50 in assay [1] was determined as 0.05 mM. The Ki in assay [1] (footnote of Table 3, read-out: Ki) was 19 mM; in assay [1] (noncompetitive inhibitor versus LacNAc, read-out: Kii), 0.13 mM; in assay [1] (noncompetitive inhibitor versus LacNAc, read-out: Kis), 0.16 mM. For the same compound, the mode of inhibition result in assay [1] is “noncompetitive inhibitor”.

Turning to `C[C@@H]1OC(OP(=O)(O)OP(=O)(O)OC[C@H]2O[C@@H](n3cnc4c(=O)[nH]c(N)nc43)[C@H](O)[C@@H]2O)[C@@H](O)[C@H](O)[C@@H]1O` (stereo partly drawn) [GDP-Fuc, guanosine 5′-diphospho fucose], the “inhibition of α1,3/4FucT (in words)” value on α1,3/4Fucosyltransferase is given as “not an inhibitor”. Moreover, the “inhibition of α1,3FucT (in words)” value in assay [1] (at concentration above 0.2 mM in the presence of 10 mM LacNAc) is given as “potent inhibitor”.

In the case of `Nc1nc2c(ncn2C2OC(COP(=O)(O)OP(=O)(O)OC3OC(CO)C(O)C(O)C3O)C(O)C2O)c(=O)[nH]1` (stereo not drawn) [GDP-Man, guanosine 5′-diphospho-mannose], in assay [1], the half-inhibitory concentration (IC50) is 2 mM. This lies in the millimolar range.

For the compound `CC(=O)N[C@H]1C(O)O[C@H](CO)[C@H](O)[C@@H]1O[C@@H]1O[C@H](CO)[C@H](O)[C@H](O)[C@H]1O` (stereo partly drawn) [Galβ1,3GalNAc], the half-inhibitory concentration (IC50) in assay [1] was greater than 100 mM.

Take `CC(=O)N[C@H]1C(O)O[C@H](CO)[C@@H](O)[C@@H]1O[C@@H]1O[C@H](CO)[C@H](O)[C@H](O)[C@H]1O` (stereo partly drawn) [Galβ1,3GlcNAc]: on α1,3/4Fucosyltransferase, the “Vrel (relative velocities)” value is recorded as 580. Further, in assay [1], the concentration for half-maximal inhibition (IC50) was greater than 50 mM and the “Vrel (relative maximal velocities)” value is 130.

Turning to `C=CCO[C@@H]1O[C@H](CO)[C@@H](O[C@@H]2O[C@H](CO)[C@H](O)[C@H](O)[C@H]2O)C[C@H]1NC(C)=O` [Galβ1,4(3-deoxy)GlcNAcβOallyl], the “inhibition of α1,3FucT (in words)” value in assay [1] (acceptor substrate analog) is “weak inhibitor”.

In the case of `OC[C@H]1O[C@@H](O[C@H]2[C@H](O)[C@@H](O)C(O)S[C@@H]2CO)[C@H](O)[C@@H](O)[C@H]1O` (stereo partly drawn) [Galβ1,4(5-thioGlc), Galβ1,4(5-thio)Glc], the “Vrel (relative velocities)” value at α1,3/4Fucosyltransferase was 310. In addition, in assay [1], the “Vrel (relative maximal velocities)” value came to 51 and the Michaelis constant (Km) worked out at 12 mM.

For `CC(=O)N[C@H]1C(O)O[C@H](CO)[C@H](O[C@@H]2O[C@H](CO)[C@H](O)[C@H](O)[C@H]2O)[C@@H]1O` (stereo partly drawn) [Galβ1,4GalNAc], the “Vrel (relative velocities)” value at α1,3/4Fucosyltransferase is reported as 27.

Turning to `C=CCO[C@@H]1O[C@H](CO)[C@@H](O[C@@H]2O[C@H](CO)[C@H](O)[C@H](O)[C@H]2O)[C@H](O)[C@H]1NC(C)=O` [Galβ1,4GlcNAcβOallyl], in assay [1], the “Vrel (relative maximal velocities)” value was 64 and the Km was 16 mM.

On to `OC[C@H]1O[C@@H](O[C@H]2[C@H](O)[C@@H](O)C(O)O[C@@H]2CO)[C@H](O)[C@@H](O)[C@H]1O` (stereo partly drawn) [Galβ1,4Glc], for which, on α1,3/4Fucosyltransferase, the “Vrel (relative velocities)” value came out at 120. In assay [1], the “Vrel (relative maximal velocities)” value is on record as 150 and the “relative maximum velocity (Vrel) based on LacNAc” value (from here on “relative maximum velocity”) was found to be 150%.

`OC[C@H]1NC[C@H](O)[C@@H](O)[C@@H]1O[C@@H]1O[C@H](CO)[C@H](O)[C@H](O)[C@H]1O` [Galβ1,4deoxynojirimycin]: the results for the half-inhibitory concentration (IC50) (against α1,3/4Fucosyltransferase (inhibitor concentration required to give 50% inhibition with 0.2 mM GDP-Fuc); in assay [1]) were 40 mM and 8 mM, respectively.

Regarding `CC(=O)N[C@H]1C(O)O[C@H](CO)[C@@H](O)[C@@H]1O` (stereo partly drawn) [GlcNAc, N-acetylglucosamine], on GalT (reported in Palcic et al., Carbohydr. Res., 159:315 (1987)), the Michaelis constant (Km) is 1.3 ± 1 mM.

Turning to `CC(=O)N[C@H]1[C@H](O[C@H]2[C@H](O)[C@@H](NC(C)=O)C(O)O[C@@H]2CO)O[C@H](CO)[C@@H](O)[C@@H]1O` (stereo partly drawn) [GlcNAcβ1,4GlcNAc], the “Vrel (relative velocities)” value on α1,3/4Fucosyltransferase is given as 23. In addition, in assay [1], the IC50 was greater than 50 mM.

As to `CC(=O)N[C@H]1[C@H](OC[C@H]2O[C@@H](O[C@H]3[C@H](O)[C@@H](O)C(O)O[C@@H]3CO)[C@H](O)[C@@H](O)[C@H]2O)O[C@H](CO)[C@@H](O)[C@@H]1O` (stereo partly drawn) [GlcNAcβ1,6Galβ1,4Glc], the “Vrel (relative velocities)” value at α1,3/4Fucosyltransferase is listed as 13.

On to `CC(=O)NC1C(O)OC(CO)C(OC2OC(CO)C(O)C(OC3(C(=O)O)CC(O)C(NC(C)=O)C(C(O)C(O)CO)O3)C2O)C1O` (stereo not drawn) [NeuAcα2,3Galβ1,4GlcNAc], for which, on α1,3/4Fucosyltransferase, the “Vrel (relative velocities)” value was found to be 60. In assay [1], the “Vrel (relative maximal velocities)” value turned out to be 620, the Km was determined as 100 mM and the “relative maximum velocity” value came to 620%.

Take `CC(=O)N[C@H]1C([C@H](O)[C@H](O)CO)O[C@@](OC2[C@H](O)C(O[C@H]3C(O)C=COC3CO)OC(CO)[C@@H]2O)(C(=O)O)C[C@H]1O` (stereo partly drawn) [NeuAcα2,3Galβ1,4Glucal]: in assay [1], the “Vrel (relative maximal velocities)” value is given as 330, the Km turned out to be 64 mM and the “relative maximum velocity” value was 330%.

`CC(=O)N[C@@H]1[C@@H](O)[C@H](O[C@@H]2O[C@H](CO[C@]3(C(=O)O)C[C@H](O)[C@@H](NC(C)=O)[C@H]([C@H](O)[C@H](O)CO)O3)[C@H](O)[C@H](O)[C@H]2O)[C@@H](CO)O[C@H]1O` [NeuAcα2,6Galβ1,4GlcNAc]: in assay [1], the “Vrel (relative maximal velocities)” value was 13 and the Km was determined as 70 mM. Also, in assay [1] (compared with NeuAcα2,3Galβ1,4GlcNAc), the “times less active as a substrate than the α2,3-isomer” value is listed as “about 50 times”.

Take Fucα1,2Galβ1,4Glc: the “Vrel (relative velocities)” value on α1,3/4Fucosyltransferase is recorded as 250.

Regarding Galβ1,4GlcNAc, the “Vrel (relative velocities)” value at α1,3/4Fucosyltransferase was 100. In assay [1], the “Vrel (relative maximal velocities)” value is on record as 100 and the Michaelis constant (Km) was found to be 35 mM.

As to NeuAcα2,3Galβ1,4GlcNAcβOallyl, in assay [1], the “Vrel (relative maximal velocities)” value came out at 380.
